Reference: ChEMBL document CHEMBL1201862, “PubChem BioAssay data set” (2004)
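Dose response: 5 concentrations. Exposure: 48 h. Format: 96-well plates. Endpoint: linear interpolation; highest concentration if not reached. Here, GI50 denotes the concentration required for 50% inhibition of growth.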 Active and inactive are the calls of the source. Rule as the data show it: active = GI50 up to about 1.1 µM and inactive = higher.

Tests used:
Assay in all cases: DTP human tumour cell line panel, 48 h
HCC 2998 = system: HCC 2998
HCT-116 = system: HCT-116
HL-60 = system: HL-60
HOP-62 = system: HOP-62
K562 = system: K562
LOX IMVI = system: LOX IMVI
MCF7 = system: MCF7
Malme-3M = system: Malme-3M
NCI-H226 = system: NCI-H226
OVCAR-4 = system: OVCAR-4
OVCAR-5 = system: OVCAR-5
RPMI-8226 = system: RPMI-8226
SK-OV-3 = system: SK-OV-3
ACHN = system: ACHN
M14 = system: M14
SR = system: SR
TK-10 = system: TK-10
786-0 = system: 786-0

Row | SMILES | GI50 (HCC 2998) | GI50 (HCT-116) | GI50 (HL-60) | GI50 (HOP-62) | GI50 (K562) | GI50 (LOX IMVI) | GI50 (MCF7) | GI50 (Malme-3M) | GI50 (NCI-H226) | GI50 (OVCAR-4) | GI50 (OVCAR-5) | GI50 (RPMI-8226) | GI50 (SK-OV-3) | GI50 (ACHN) | GI50 (M14) | GI50 (SR) | GI50 (TK-10) | GI50 (786-0)
1 | C=CCc1cccc(/C=N\N/C(N)=N/O)c1O | 3.21 µM (inactive) | 5.33 µM (inactive) | 2.14 µM (inactive) | 2.28 µM (inactive) | 3.3 µM (inactive) | 3.29 µM (inactive) | 2.56 µM (inactive) | 9.2 µM (inactive) | 3.18 µM (inactive) | 5.16 µM (inactive) | 5.02 µM (inactive) | 2.22 µM (inactive) | 4.84 µM (inactive) | – | – | – | – | –
2 | Cc1ccc2cc3cccc(C(=O)NCCN(C)C)c3nc2c1 | 1.49 µM (inactive) | 0.459 µM (active) | 0.565 µM (active) | 0.923 µM (active) | 0.69 µM (active) | 0.818 µM (active) | 0.681 µM (active) | 1.06 µM (active) | 0.927 µM (active) | 0.998 µM (active) | 1.47 µM (inactive) | 0.807 µM (active) | 1.57 µM (inactive) | – | – | – | – | –
3 | CN1CCN(c2cc(-c3cc4ccccc4o3)oc(=O)c2C#N)CC1 | > 100 µM (inactive) | 77.1 µM (inactive) | 43.9 µM (inactive) | – | 66.5 µM (inactive) | 48.3 µM (inactive) | – | > 100 µM (inactive) | 14.2 µM (inactive) | 93.5 µM (inactive) | 50.1 µM (inactive) | 75.5 µM (inactive) | – | 59 µM (inactive) | > 100 µM (inactive) | 36.8 µM (inactive) | 59.4 µM (inactive) | –
4 | CC(=O)OC(C)(C)/C=C/C(=O)[C@](C)(O)[C@H]1[C@H](O)C[C@@]2(C)[C@@H]3CC=C4[C@@H](C[C@H](O)C(=O)C4(C)C)[C@]3(CO)C(=O)C[C@]12C [CUCURBITACIN A] | 0.35 µM (active) | 0.437 µM (active) | 0.335 µM (active) | 0.26 µM (active) | 0.445 µM (active) | 0.207 µM (active) | – | 0.344 µM (active) | 0.0762 µM (active) | 0.348 µM (active) | 0.955 µM (active) | 0.0942 µM (active) | 0.391 µM (active) | 0.262 µM (active) | 0.39 µM (active) | 0.65 µM (active) | 0.179 µM (active) | 0.316 µM (active)
5 | Oc1c(CNCCCN2CCCC2)cc(Cl)c2cccnc12 | 3.1 µM (inactive) | 2.61 µM (inactive) | 0.364 µM (active) | 2.66 µM (inactive) | 2.37 µM (inactive) | 3.01 µM (inactive) | 4.56 µM (inactive) | 5.55 µM (inactive) | 3.15 µM (inactive) | 3.92 µM (inactive) | 2.52 µM (inactive) | 2.38 µM (inactive) | 4.13 µM (inactive) | – | – | – | – | –
6 | O=C1OC(c2ccccc2)=N/C1=C\c1ccc(Oc2ccc(Cl)c(Cl)c2)cc1 | 50 µM (inactive) | 33.2 µM (inactive) | 27.9 µM (inactive) | 88.3 µM (inactive) | 24.4 µM (inactive) | – | – | 26 µM (inactive) | – | – | > 100 µM (inactive) | – | – | 63.1 µM (inactive) | 49.5 µM (inactive) | 21.7 µM (inactive) | > 100 µM (inactive) | 29.9 µM (inactive)
7 | COc1cccc(C2C(C(=O)O)=C(CO)Oc3cc4c(cc32)OCO4)c1OC (stereo not drawn) | – | – | > 100 µM (inactive) | – | > 100 µM (inactive) | > 100 µM (inactive) | – | > 100 µM (inactive) | > 100 µM (inactive) | – | – | > 100 µM (inactive) | > 100 µM (inactive) | > 100 µM (inactive) | > 100 µM (inactive) | – | > 100 µM (inactive) | –
8 | O=P1(c2ccccc2)Nc2ccccc2SSc2ccccc2N1 | 20.7 µM (inactive) | 16.8 µM (inactive) | 13.8 µM (inactive) | > 10 µM (inactive) | 18.2 µM (inactive) | 16.2 µM (inactive) | 16.7 µM (inactive) | 18.4 µM (inactive) | 17 µM (inactive) | 18.6 µM (inactive) | 21.2 µM (inactive) | 18.3 µM (inactive) | 25.5 µM (inactive) | – | – | – | – | –
9 | CC1Oc2c(c(O)cc3oc(=O)cc(-c4ccccc4)c23)C(=O)C1C (stereo not drawn) | – | – | > 100 µM (inactive) | – | > 100 µM (inactive) | > 100 µM (inactive) | – | > 100 µM (inactive) | > 100 µM (inactive) | – | – | > 100 µM (inactive) | > 100 µM (inactive) | > 100 µM (inactive) | > 100 µM (inactive) | – | > 100 µM (inactive) | –
10 | O=c1oc2ccccc2c(O)c1C(C/C(CCN1CCCC1)=N\Nc1ccccc1)c1ccccc1 (stereo not drawn) | 23.6 µM (inactive) | 82.6 µM (inactive) | 24.2 µM (inactive) | 94.2 µM (inactive) | 46.2 µM (inactive) | 55.6 µM (inactive) | – | 78.5 µM (inactive) | 71.9 µM (inactive) | 97.7 µM (inactive) | > 100 µM (inactive) | 27.1 µM (inactive) | 94.4 µM (inactive) | 54.8 µM (inactive) | 93.1 µM (inactive) | 31.2 µM (inactive) | > 100 µM (inactive) | > 100 µM (inactive)
11 | O=C(OCc1ccccc1)C(Cc1ccccc1)N(Cc1ccccc1)Cc1ccccc1 (stereo not drawn) | 35.7 µM (inactive) | 24.1 µM (inactive) | 36.7 µM (inactive) | > 100 µM (inactive) | 14.4 µM (inactive) | – | – | > 100 µM (inactive) | – | 28.8 µM (inactive) | > 100 µM (inactive) | 37.1 µM (inactive) | > 100 µM (inactive) | 19.5 µM (inactive) | > 100 µM (inactive) | 9.51 µM (inactive) | > 100 µM (inactive) | –
12 | CC(=O)OC1CC2(O)C(CCC3(C)C(c4ccc(=O)oc4)CCC32O)C2(C)C1=CC(O)C1OC12 (stereo not drawn) | 0.114 µM (active) | 0.0296 µM (active) | 0.0575 µM (active) | 0.05 µM (active) | 0.0467 µM (active) | 0.0687 µM (active) | 0.0552 µM (active) | 0.0419 µM (active) | 0.115 µM (active) | 0.0457 µM (active) | 0.239 µM (active) | 0.0675 µM (active) | 0.0843 µM (active) | – | – | – | – | –
13 | CN(C)CCNC(=O)c1cc(Cl)cc2ccc(-c3ccccc3)nc12 | 3.54 µM (inactive) | 2.18 µM (inactive) | 2.05 µM (inactive) | 3.13 µM (inactive) | 1.78 µM (inactive) | 2.32 µM (inactive) | 1.82 µM (inactive) | 3.63 µM (inactive) | 2.49 µM (inactive) | 3.92 µM (inactive) | 4.84 µM (inactive) | 1.85 µM (inactive) | 3.13 µM (inactive) | – | – | – | – | –
14 | COC(=O)C1=C(C)N2CCOC2(C)C(C(=O)OC)C1c1ccc[nH]1 (stereo not drawn) | > 100 µM (inactive) | > 100 µM (inactive) | > 100 µM (inactive) | > 100 µM (inactive) | > 100 µM (inactive) | – | – | – | > 100 µM (inactive) | > 100 µM (inactive) | – | > 100 µM (inactive) | – | > 100 µM (inactive) | > 100 µM (inactive) | > 100 µM (inactive) | > 100 µM (inactive) | –
15 | COc1ccc2c3c1O[C@]1(C)C34CCN(C)C(C2)C42C=C[C@@]1(OC)c1c(O)ccc(O)c12 | > 100 µM (inactive) | > 100 µM (inactive) | 17.8 µM (inactive) | > 100 µM (inactive) | > 100 µM (inactive) | > 100 µM (inactive) | – | 64.7 µM (inactive) | – | – | > 100 µM (inactive) | > 100 µM (inactive) | > 100 µM (inactive) | > 100 µM (inactive) | – | – | > 100 µM (inactive) | 95.7 µM (inactive)
16 | Cc1ccc(S(=O)(=O)N(CC(=O)O)c2ccccc2)cc1 | > 100 µM (inactive) | – | > 100 µM (inactive) | – | > 100 µM (inactive) | > 100 µM (inactive) | – | > 100 µM (inactive) | – | > 100 µM (inactive) | > 100 µM (inactive) | > 100 µM (inactive) | > 100 µM (inactive) | > 100 µM (inactive) | > 100 µM (inactive) | – | > 100 µM (inactive) | > 100 µM (inactive)
17 | Cc1cc(C)cc(Sc2c([N+](=O)[O-])ncn2C)c1 | 25 µM (inactive) | 13.8 µM (inactive) | – | > 100 µM (inactive) | 11.2 µM (inactive) | 11.5 µM (inactive) | – | 7.28 µM (inactive) | 6.03 µM (inactive) | 15.4 µM (inactive) | 16.9 µM (inactive) | 9.98 µM (inactive) | 23.8 µM (inactive) | 26.2 µM (inactive) | 14 µM (inactive) | 10.5 µM (inactive) | 23 µM (inactive) | 24 µM (inactive)
18 | C=C1C(=O)O[C@H]2[C@H]1[C@@H](OC(=O)C=C(C)C)CC1=C[C@@H](C[C@@]3(C)O[C@@H]23)OC1=O | 17.4 µM (inactive) | 3.4 µM (inactive) | – | 27.9 µM (inactive) | – | 2.27 µM (inactive) | – | 8.04 µM (inactive) | 21.2 µM (inactive) | 6.32 µM (inactive) | 16.7 µM (inactive) | – | 20.9 µM (inactive) | – | – | – | – | –
19 | NC1=C(C(=O)O)C(=O)C(Nc2c(O)cccc2C(=O)O)=CC1=O | 31.6 µM (inactive) | > 100 µM (inactive) | > 100 µM (inactive) | > 100 µM (inactive) | > 100 µM (inactive) | > 100 µM (inactive) | – | 40.1 µM (inactive) | > 100 µM (inactive) | > 100 µM (inactive) | > 100 µM (inactive) | > 100 µM (inactive) | > 100 µM (inactive) | > 100 µM (inactive) | 45.4 µM (inactive) | > 100 µM (inactive) | > 100 µM (inactive) | > 100 µM (inactive)
20 | O=[N+]([O-])c1ccccc1C1SCc2nc3ccccc3n21 (stereo not drawn) | – | – | 74.6 µM (inactive) | 92 µM (inactive) | 45.5 µM (inactive) | > 100 µM (inactive) | – | 22.1 µM (inactive) | – | > 100 µM (inactive) | – | – | > 100 µM (inactive) | 92.5 µM (inactive) | – | 85.3 µM (inactive) | 79.1 µM (inactive) | > 100 µM (inactive)
